“Also recorded” adds a separate entry of the source. Like-named read-outs stand apart in the source and are kept apart here.
How the values were obtained:
[1] = format: in vivo, male Swiss albino mice; conditions: for Analgesic (agonist) activity, in words: phenylquinone writhing, mice; for Analgesic action, inhibition action on phenylquinone writhing: dose giving 50 % inhibition / Analgesic action, inhibition action on phenylquinone writhing, % inhibition: subcutaneous; for Analgesic action, inhibition action on phenylquinone writhing: dose giving 50 % inhibition: 30 min before phenyl-p-benzoquinone, dose with 50 % inhibition; for % Inhibn, control (single agent) in antagonist study: alone
Method: (§1) The percent change is calculated according to the following equation: % change=100- (no. of writhes in treated group/no. of writhes in control group)×100.

[2] = Analgesic antagonist testing against morphine sulfate (phenylquinone writhing); format: in vivo, male Swiss albino mice
Method: as §1

[3] = Analgesic antagonist testing against analgesic agonists of the W-1 to W-19 and 0-1 to 0-3 series, e.g. W-3 (phenylquinone writhing); format: in vivo, male Swiss albino mice
Method: as §1

[4] = at the dose listed for the substance under E1

For `CN1CCCCC1=NS(=O)(=O)c1ccccc1N` [Compound W-11, 1-Methylpiperidylidene-2-(2-aminophenyl)sulfonamide], which “Analgesic (agonist) activity, in words” value [1] is on record?
The value was “active analgesics, being comparable to morphine sulfate”.

What about the “Analgesic action, inhibition action on phenylquinone writhing: dose giving 50 % inhibition” value (“Analgesic action … dose giving 50 % inhibition” below) [1] of the same compound?
The value was 0.00024 mg/kg.

And the “Analgesic action, inhibition action on phenylquinone writhing, % inhibition” value [1, 4]?
Its value is 50%.

With `CC(=O)Nc1ccc(S(=O)(=O)N=C2CCCCN2C)cc1` [Compound W-12, 1-Methylpiperidylidene-2-(4-acetamidophenyl)sulfonamide] as the compound, how does the “Analgesic action … dose giving 50 % inhibition” value [1] read?
The value was 1.2 mg/kg.

What about the “Analgesic action, inhibition action on phenylquinone writhing, % inhibition” value [1, 4] of the same compound?
The value was 50%.

With `CN1CCCCC1=NC#N` [Compound W-13, 1-Methylpiperidylidene-2-cyanamide] as the compound, how does the “Analgesic action … dose giving 50 % inhibition” value [1] read?
The value was 6.0 mg/kg.

What about the “Analgesic action, inhibition action on phenylquinone writhing, % inhibition” value [1, 4] of the same compound?
Its value is 50%.

Which “Analgesic (agonist) activity, in words” value [1] does the source give for `CN1CCCCC1=NS(=O)(=O)c1cccnc1` [Compound W-14, 1-Methylpiperidylidene-2-(3-pyridyl)sulfonamide] here?
The value was “active analgesics, being comparable to morphine sulfate”.

What about the “Analgesic action … dose giving 50 % inhibition” value [1] of the same compound?
The value was 0.00038 mg/kg.

And the “Analgesic action, inhibition action on phenylquinone writhing, % inhibition” value [1, 4]?
The value was 50%.

Which results are given for `O=S(=O)(N=C1CCCCN1CCc1ccccc1)c1ccc(Cl)cc1` [Compound W-15, 1-Phenylethylpiperidylidene-2-(4-chlorophenyl)sulfonamide]?
Analgesic (agonist) activity, in words [1]: active analgesics, being comparable to morphine sulfate; Analgesic action, inhibition action on phenylquinone writhing: dose giving 50 % inhibition [1]: 0.007 mg/kg; Analgesic action, inhibition action on phenylquinone writhing, % inhibition [1, 4]: 50%

With `Nc1ccc(S(=O)(=O)N=C2CCCCN2CCc2ccccc2)cc1` [Compound W-16, 1-Phenylethylpiperidylidene-2-(4-aminophenyl)sulfonamide] as the compound, how does the “Analgesic (agonist) activity, in words” value [1] read?
The value was “active analgesics, being comparable to morphine sulfate”.

And the “Analgesic action, inhibition action on phenylquinone writhing, % inhibition” value ([1]; dose 0.20 mg/kg)?
Its value is 56%.

With `O=S(=O)(N=C1CCCCN1CCc1ccccc1)c1cccnc1` [Compound W-17, 1-Phenylethylpiperidylidene-2-(3-pyridyl)sulfonamide] as the compound, how does the “Analgesic (agonist) activity, in words” value [1] read?
The value was “active analgesics, being comparable to morphine sulfate”.

And the “Analgesic action, inhibition action on phenylquinone writhing, % inhibition” value ([1]; dose 0.20 mg/kg)?
The value was 65%.

For `O=[N+]([O-])c1ccc(CCN2CCCCC2=NS(=O)(=O)c2ccc(Cl)cc2)cc1` [Compound W-18, 1-(4-Nitrophenylethyl)piperidylidene-2-(4-chlorophenyl)sulfonamide], which “Analgesic action, inhibition action on phenylquinone writhing, % inhibition” value [1, 4] is on record?
The value was 50%.

For `Nc1ccc(CCN2CCCCC2=NS(=O)(=O)c2ccc(Cl)cc2)cc1` [Compound W-19, 1-(4-Aminophenylethyl)piperidylidene-2-(4-chlorophenyl)sulfonamide], which “Analgesic action, inhibition action on phenylquinone writhing, % inhibition” value [1, 4] is on record?
The value was 50%.

Which results are given for `O=S(=O)(N=C1CCCCN1CC1CC1)c1ccc(Cl)cc1` [Compound W-20, 1-Cyclopropylmethylpiperidylidene-2-(4-chlorophenyl)sulfonamide]?
% Inhibn, control (single agent) in antagonist study ([1]; 0.5 mg/kg sc): 36%; % Inhibn, control (single agent) in antagonist study ([1]; 2.0 mg/kg sc): 46%; % Inhibn, control (single agent) in antagonist study ([1]; 10.0 mg/kg sc): 69%; Analgesic action, inhibition action on phenylquinone writhing: dose giving 50 % inhibition [1]: 2.3 mg/kg; Analgesic action, inhibition action on phenylquinone writhing, % inhibition [1, 4]: 50%; Antagonist activities, % inhibition of writhing with antagonist + agonist ([2]; Expt. 1: W-20 (2.0 mg/kg sc) 10 min before MS (0.2 mg/kg sc)): 55%; Antagonist activities, % inhibition of writhing with antagonist + agonist ([2]; Expt. 2: W-20 (10.0 mg/kg sc) 10 min before MS (0.2 mg/kg sc)): 66%; Block of agonist analgesic effect, in words ([2]; W-20 (2.0 mg/kg sc) vs MS (0.2 mg/kg sc)): near complete block; Block of agonist analgesic effect, in words ([2]; W-20 (10.0 mg/kg sc) vs MS (0.2 mg/kg sc)): complete block; also recorded: completely blocks; Antagonist activities, % inhibition of writhing with antagonist + agonist ([3]; Expt. 3: W-20 (0.5 mg/kg sc) 10 min before W-3 (2.0 mg/kg sc)): 53%; Antagonist activities, % inhibition of writhing with antagonist + agonist ([3]; Expt. 4: W-20 (2.0 mg/kg sc) 10 min before W-3 (2.0 mg/kg sc)): 49%; Block of agonist analgesic effect, in words ([3]; W-20 (0.5 mg/kg sc) vs W-3 (2.0 mg/kg sc)): partial block; Block of agonist analgesic effect, in words ([3]; W-20 (2.0 mg/kg sc) vs W-3 (2.0 mg/kg sc)): complete block; also recorded: completely blocks

For `Nc1ccc(S(=O)(=O)N=C2CCCCN2CC2CC2)cc1` [Compound W-21, 1-Cyclopropylmethylpiperidylidene-2-(4-aminophenyl)sulfonamide], which “Analgesic action, inhibition action on phenylquinone writhing, % inhibition” value ([1]; dose 2.0 mg/kg (Table 3)) is on record?
Its value is 49%.

With `O=S(=O)(N=C1CCCCN1CC1CC1)c1cccnc1` [Compound W-22, 1-Cyclopropylmethylpiperidylidene-2-(3-pyridyl)sulfonamide] as the compound, how does the “Analgesic action … dose giving 50 % inhibition” value [1] read?
Its value is 2.0 mg/kg.

And the “Analgesic action, inhibition action on phenylquinone writhing, % inhibition” value ([1]; dose 2.0 mg/kg (Table 3))?
Its value is 50%.

For `O=S(=O)(N=C1CCCCN1CC1CCC1)c1ccc(Cl)cc1` [Compound W-23, 1-Cyclobutylmethylpiperidylidene-2-(4-chlorophenyl)sulfonamide], which “Analgesic action … dose giving 50 % inhibition” value [1] is on record?
Its value is 0.01 mg/kg.

What about the “Analgesic action, inhibition action on phenylquinone writhing, % inhibition” value [1, 4] of the same compound?
The value was 50%.

Which “Analgesic action, inhibition action on phenylquinone writhing, % inhibition” value ([1]; dose 0.20 mg/kg) does the source give for `Nc1ccc(S(=O)(=O)N=C2CCCCN2CC2CCC2)cc1` [Compound W-24, 1-Cyclobutylmethylpiperidylidene-2-(4-aminophenyl)sulfonamide] here?
The value was 61%.

For `O=S(=O)(N=C1CCCCN1CC1CCC1)c1cccnc1` [Compound W-25, 1-Cyclobutylmethylpiperidylidene-2-(3-pyridyl)sulfonamide], which “Analgesic action, inhibition action on phenylquinone writhing, % inhibition” value ([1]; dose 0.20 mg/kg) is on record?
The value was 69%.

For `CCCN1CCCCC1=NS(=O)(=O)c1ccc(Cl)cc1` [Compound W-26, 1-n-Propylpiperidylidene-2-(4-chlorophenyl)sulfonamide], which “Analgesic action … dose giving 50 % inhibition” value [1] is on record?
The value was 1.4 mg/kg.

And the “Analgesic action, inhibition action on phenylquinone writhing, % inhibition” value [1, 4]?
Its value is 50%.

Which “Analgesic action, inhibition action on phenylquinone writhing, % inhibition” value ([1]; dose 2.0 mg/kg (Table 3)) does the source give for `CCCN1CCCCC1=NS(=O)(=O)c1ccc(N)cc1` [Compound W-27, 1-n-Propylpiperidylidene-2-(4-aminophenyl)sulfonamide] here?
The value was 59%.

For `CCCN1CCCCC1=NS(=O)(=O)c1cccnc1` [Compound W-28, 1-n-Propylpiperidylidene-2-(3-pyridyl)sulfonamide], which “Analgesic action, inhibition action on phenylquinone writhing, % inhibition” value ([1]; dose 2.0 mg/kg (Table 3)) is on record?
The value was 82%.

Which “Analgesic action … dose giving 50 % inhibition” value [1] does the source give for `CC(C)CN1CCCCC1=NS(=O)(=O)c1ccc(Cl)cc1` [Compound W-29, 1-Isobutylpiperidylidene-2-(4-chlorophenyl)sulfonamide] here?
Its value is 2.0 mg/kg.

What about the “Analgesic action, inhibition action on phenylquinone writhing, % inhibition” value ([1]; dose 2.0 mg/kg (Table 3)) of the same compound?
The value was 50%.

With `CC(C)CN1CCCCC1=NS(=O)(=O)c1ccc(N)cc1` [Compound W-30, 1-Isobutylpiperidylidene-2-(4-aminophenyl)sulfonamide] as the compound, how does the “Analgesic action, inhibition action on phenylquinone writhing, % inhibition” value ([1]; dose 2.0 mg/kg (Table 3)) read?
The value was 59%.

For `CC(C)CN1CCCCC1=NS(=O)(=O)c1cccnc1` [Compound W-31, 1-Isobutylpiperidylidene-2-(3-pyridyl)sulfonamide], which “Analgesic action, inhibition action on phenylquinone writhing, % inhibition” value ([1]; dose 2.0 mg/kg (Table 3)) is on record?
Its value is 65%.

Which “Analgesic action … dose giving 50 % inhibition” value [1] does the source give for `C/C=C/N1CCCCC1=NS(=O)(=O)c1ccc(Cl)cc1` [Compound W-32, E-1-(1-Propenyl)piperidylidene-2-(4-chlorophenyl)sulfonamide] here?
Its value is 0.013 mg/kg.

What about the “Analgesic action, inhibition action on phenylquinone writhing, % inhibition” value [1, 4] of the same compound?
The value was 50%.

For `CCC(=O)O[C@](Cc1ccccc1)(c1ccccc1)[C@H](C)CN(C)C` [Dextropropoxyphene (TM), reference compound], which “Analgesic action … dose giving 50 % inhibition” value [1] is on record?
The value was 56.0 mg/kg.

And the “Analgesic action, inhibition action on phenylquinone writhing, % inhibition” value [1, 4]?
Its value is 50%.

With `C=CCN1CC[C@]23c4c5ccc(O)c4O[C@H]2C(=O)CC[C@@]3(O)[C@H]1C5` [Naloxone, reference compound] as the compound, how does the “Antagonist activities, % inhibition of writhing with antagonist + agonist” value ([3]; Expt. 5: Naloxone (1.0 mg/kg sc) before W-3 (5.0 mg/kg sc)) read?
Its value is 45%.

And the “Block of agonist analgesic effect, in words” value ([3]; Naloxone (1.0 mg/kg sc) vs W-3 (5.0 mg/kg sc))?
The value was “partial block; also recorded: partially blocks”.

And the “Antagonist activity, in words” value ([3]; toward W-3, dose not given)?
Its value is “acted as an antagonist toward W-3”.

Reference: patent US4468403A, “Analgesic substituted piperidylidene-2-sulfon(cyan)amide derivatives” (priority 1982, dated 1984)
